Bounds are passed on as bounds.

Assay [1] addresses T1, mTOR (Homo sapiens, UniProt P42345).
T1 construct: endogenous in cells; host or cells: Jurkat, clone E6-1 (ATCC TIB-152) cell lysate
Nature of the assay: mTOR kinobeads assay (competitive binding in Jurkat cell lysate, immunodetection). The note with it: kinobeads assay, Table 6; read-out: Inhibition values (IC50) mTOR. In outline:
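IC50 derived from dose-response curves of mTOR captured on immobilized phenylmorpholin-chromen beads, detected by antibody dot blot with infrared fluorescence.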

Assay [2] has as its system S6RP serine-240/244 phosphorylation. Kind of assay: In vitro Phospho-S6 cellular assay (pS6RP S240/244) in HEK293T/17 cells. The assay is classed as cell-based. Conditions: Homo sapiens, 2 hours, read-out: pS6 IC50. Put shortly:
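HEK293T/17 cells were seeded at 40,000 (pS6RP) or 80,000 (pAkt) cells/well in DMEM with 2% FCS. They were exposed to 8 compound concentrations (0.1% DMSO) for 2 h at 37 °C and then lysed. Phosphoprotein was quantified by MesoScale electrochemiluminescence sandwich immunoassay, and the sigmoidal variable-slope dose-response was fitted.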

In general, IC50 refers to the concentration that gives 50% inhibition. On to `CCNC(=O)Nc1ccc(-c2nc3c(c(N4CCOCC4)n2)CN(C(=O)OCC)C3)cc1` [Example 70, Ethyl 2-(4-(3-ethylureido)phenyl)-4-morpholino-5H-pyrrolo[3,4-d]pyrimidine-6(7H)-carboxylate], for which the half-maximal inhibitory concentration (IC50) in assay [1] is below 0.1 µM; in assay [2], 0.133 µM.

With `COC(=O)N1CCc2c(nc(-c3ccc(NC(=O)NC4CC4)cc3)nc2N2CCOC[C@@H]2C)C1` [Example 83, (S)-methyl 2-(4-(3-cyclopropylureido)phenyl)-4-(3-methylmorpholino)-5,6-dihydropyrido[3,4-d]pyrimidine-7(8H)-carboxylate], the IC50 is below 0.1 µM in assay [1] and 0.14 µM in assay [2].

As to `CCNC(=O)Nc1ccc(-c2nc3c(c(N4CCOCC4)n2)CCN(C(C)=O)C3)cc1` [Example 97, 1-(4-(7-acetyl-4-morpholino-5,6,7,8-tetrahydropyrido[3,4-d]pyrimidin-2-yl)phenyl)-3-ethylurea], the IC50 is below 0.1 µM in assay [1] and 0.338 µM in assay [2].

Consider `CCNC(=O)Nc1ccc(-c2nc3c(c(N4CCOCC4)n2)CCN(C)C3)cc1` [Example 93, 1-ethyl-3-(4-(7-methyl-4-morpholino-5,6,7,8-tetrahydropyrido[3,4-d]pyrimidin-2-yl)phenyl)urea], for which the figures for the 50% inhibitory concentration (IC50) in assay [1] and in assay [2] were 0.1 to 1 µM and 0.196 µM, respectively.

As for `COC(=O)N1Cc2nc(-c3ccc(NC(=O)NC4CC4)cc3)nc(N3CCOC[C@@H]3C)c2C1` [Example 86, (S)-methyl 2-(4-(3-cyclopropylureido)phenyl)-4-(3-methylmorpholino)-5H-pyrrolo[3,4-d]pyrimidine-6(7H)-carboxylate], the IC50 is below 0.1 µM in assay [1] and 0.099 µM in assay [2].

`C[C@H]1COCCN1c1nc(-c2ccc(NC(=O)NC3CC3)cc2)nc2c1CCN(C(=O)C(C)(C)C)C2` [Example 64, (S)-1-cyclopropyl-3-(4-(4-(3-methylmorpholino)-7-pivaloyl-5,6,7,8-tetrahydropyrido[3,4-d]pyrimidin-2-yl)phenyl)urea]: the IC50 in assay [1] was below 0.1 µM; in assay [2], 0.03 µM.

The values are drawn from US8785457B2 (Cellzome Limited, priority 2009, dated 2014).
